Source: patent publication US20110218103A1, “Fluoroalkyl-substituted 2-amidobenzimidazoles” (BAYER CROPSCIENCE AG, priority 2010, published 2011)

How the values were obtained:
Type in all cases: in vivo
Zea mays (ZEAMX) [1] = test: Cold stress test on crop plants, spray application in greenhouse, visual damage rating; details: 25 g/ha, mean of three results
Experimental: Seeds of monocotyledonous and dicotyledonous crop plants were placed in sandy loam in wood-fiber pots, covered with soil and cultivated in a greenhouse under good growth conditions. The test plants were treated at the early leaf stage (BBCH10-BBCH13). To ensure uniform water supply before commencement of stress, the potted plants were supplied with the maximum amount of water immediately beforehand by dam irrigation and, after application, transferred in plastic inserts in order to prevent subsequent, excessively rapid drying. The inventive compounds, formulated in the form of wettable powders (WP), wettable granules (WG), suspension concentrates (SC) or emulsion concentrates (EC), were sprayed onto the green parts of the plants as an aqueous suspension at an equivalent water application rate of 600 l/ha with addition of 0.2% wetting agent (agrotin). Substance application was followed immediately by stress treatment of the plants (cold or drought stress). For cold stress treatment, the plants were kept under the following controlled conditions: “day”: 12 hours with illumination at 8° C. “night”: 12 hours without illumination at 1° C. The duration of the respective stress phases was guided mainly by the state of the untreated, stressed control plants and thus varies from crop to crop. It was ended (by re-irrigating or transfer to a greenhouse with good growth conditions) as soon as irreversible damage is observed on the untreated, stressed control plants. In the case of dicotyledonous crops, for example oilseed rape and soya, the duration of the drought stress phase was between 3 and 5 days, in the case of monocotyledonous crops, for example wheat, barley or corn, between 6 and 10 days. The duration of the cold stress phase varied between 12 and 14 days. The end of the stress phase was followed by an approx. 5-7-day recovery phase, during which the plants were once again kept under good growth conditions in a greenhouse. […] The intensity of damage was first assessed as a percentage (100%=plants have died, 0%=like control plants). […]

Zea mays (ZEAMX) [2] = test: Drought stress test on crop plants, spray application in greenhouse, visual damage rating; details: 25 g/ha, mean of three results
Experimental: Seeds of monocotyledonous and dicotyledonous crop plants were placed in sandy loam in wood-fiber pots, covered with soil and cultivated in a greenhouse under good growth conditions. The test plants were treated at the early leaf stage (BBCH10-BBCH13). To ensure uniform water supply before commencement of stress, the potted plants were supplied with the maximum amount of water immediately beforehand by dam irrigation and, after application, transferred in plastic inserts in order to prevent subsequent, excessively rapid drying. The inventive compounds, formulated in the form of wettable powders (WP), wettable granules (WG), suspension concentrates (SC) or emulsion concentrates (EC), were sprayed onto the green parts of the plants as an aqueous suspension at an equivalent water application rate of 600 l/ha with addition of 0.2% wetting agent (agrotin). Substance application was followed immediately by stress treatment of the plants (cold or drought stress). For cold stress treatment, the plants were kept under the following controlled conditions: Drought stress was induced by gradual drying out under the following conditions: “day”: 14 hours with illumination at 26° C. “night”: 10 hours without illumination at 18° C. The duration of the respective stress phases was guided mainly by the state of the untreated, stressed control plants and thus varies from crop to crop. It was ended (by re-irrigating or transfer to a greenhouse with good growth conditions) as soon as irreversible damage is observed on the untreated, stressed control plants. In the case of dicotyledonous crops, for example oilseed rape and soya, the duration of the drought stress phase was between 3 and 5 days, in the case of monocotyledonous crops, for example wheat, barley or corn, between 6 and 10 days. The duration of the cold stress phase varied between 12 and 14 days. The end of the stress phase was followed by an approx. 5-7-day recovery phase, during which the plants were once again kept under good growth conditions in a greenhouse. In order to rule out any influence of the effects observed by any fungicidal action of the test compounds, it was additionally ensured that the tests proceed without fungal infection and without infection pressure. After the recovery phase had ended, the intensities of damage were rated visually compared to untreated, unstressed controls of the same age (in the case of drought stress) or the same growth stage (in the case of cold stress). The intensity of damage was first assessed as a percentage (100%=plants have died, 0%=like control plants). These values were then used to calculate the efficacy of the test compounds (=percentage reduction in the intensity of damage as a result of substance application) by the following formula: [formula] EF: efficacy (%) DVus: damage value of the untreated, stressed control DVts: damage value of the plants treated with test compound The tables below list mean values in each case from three results of the same test. Effects of selected compounds of the formula (I) under drought stress: ZEAMX=Zea mays

Brassica napus (BRSNS) = test: as above; details: 50 g/ha, mean of three results
Experimental: Seeds of monocotyledonous and dicotyledonous crop plants were placed in sandy loam in wood-fiber pots, covered with soil and cultivated in a greenhouse under good growth conditions. The test plants were treated at the early leaf stage (BBCH10-BBCH13). To ensure uniform water supply before commencement of stress, the potted plants were supplied with the maximum amount of water immediately beforehand by dam irrigation and, after application, transferred in plastic inserts in order to prevent subsequent, excessively rapid drying. The inventive compounds, formulated in the form of wettable powders (WP), wettable granules (WG), suspension concentrates (SC) or emulsion concentrates (EC), were sprayed onto the green parts of the plants as an aqueous suspension at an equivalent water application rate of 600 l/ha with addition of 0.2% wetting agent (agrotin). Substance application was followed immediately by stress treatment of the plants (cold or drought stress). For cold stress treatment, the plants were kept under the following controlled conditions: Drought stress was induced by gradual drying out under the following conditions: “day”: 14 hours with illumination at 26° C. “night”: 10 hours without illumination at 18° C. The duration of the respective stress phases was guided mainly by the state of the untreated, stressed control plants and thus varies from crop to crop. It was ended (by re-irrigating or transfer to a greenhouse with good growth conditions) as soon as irreversible damage is observed on the untreated, stressed control plants. In the case of dicotyledonous crops, for example oilseed rape and soya, the duration of the drought stress phase was between 3 and 5 days, in the case of monocotyledonous crops, for example wheat, barley or corn, between 6 and 10 days. The duration of the cold stress phase varied between 12 and 14 days. The end of the stress phase was followed by an approx. 5-7-day recovery phase, during which the plants were once again kept under good growth conditions in a greenhouse. In order to rule out any influence of the effects observed by any fungicidal action of the test compounds, it was additionally ensured that the tests proceed without fungal infection and without infection pressure. After the recovery phase had ended, the intensities of damage were rated visually compared to untreated, unstressed controls of the same age (in the case of drought stress) or the same growth stage (in the case of cold stress). The intensity of damage was first assessed as a percentage (100%=plants have died, 0%=like control plants). These values were then used to calculate the efficacy of the test compounds (=percentage reduction in the intensity of damage as a result of substance application) by the following formula: [formula] EF: efficacy (%) DVus: damage value of the untreated, stressed control DVts: damage value of the plants treated with test compound The tables below list mean values in each case from three results of the same test. Effects of selected compounds of the formula (I) under drought stress: BRSNS=Brassica napus

NC(=O)c1cccc2[nH]c(C(F)(F)F)nc12 [1-14]
>5%: EF (ZEAMX), efficacy = percentage reduction in the intensity of damage (Zea mays (ZEAMX) [1]) | EF (ZEAMX), efficacy = percentage reduction in the intensity of damage (Zea mays (ZEAMX) [2]) | EF (BRSNS), efficacy = percentage reduction in the intensity of damage (Brassica napus (BRSNS))
